From patent publication US8921373B2, “Compounds having TRPV1 antagonistic activity and uses thereof” (Shionogi & Co., Ltd., priority 2010, dated 2014)

Key:
human recombinant TRPV1 [1] = target: T1, human recombinant TRPV1 (Homo sapiens (Human), UniProt Q8NER1); assay: TRPV1 pH-Based Assay (Protocol 2, Ca2+ response in TRPV1/CHO cells, Fura-2); format: cell-based; settings: TRPV1/CHO cells, pH 5.0-5.1; read-out: IC50 value by the pH-Based Assay
Procedure: (§1) For Protocol 2, a Chinese Hamster Ovary cell line (CHO) that has been engineered to constitutively express human recombinant TRPV1 was used (TRPV1/CHO cells). The TRPV1/CHO cell line was generated as described below.
TRPV1/CHO cells were seeded in the 96-well clear-bottom black-wall plate (Nunc) at densities of 1-2×10^4 cells/well and grown in 100 μL of culture medium (alpha-MEM supplemented with 10% FBS, 20 mM HEPES, 1 mg/mL geneticin and 1% antibiotic-antimycotic mixed stock solution) for 1-2 days before the experiment.
(2) The 96-well plate was incubated at 37° C. for 45 min.
(3) The loading buffer was removed from each well. […] The wells were then refilled with 80 μL of measuring buffer.
(4) After an incubation at 4° C. for 15 min, the 96-well plate was transferred to FDSS-3000 (Hamamatsu Photonics, Japan).
(5) The Fura-2 fluorescent intensity was monitored at a wavelength of 340 nm and at 380 nm, respectively, at a rate of 0.5 Hz for a total of 240 seconds. After 16 time points (32 sec) of baseline detection, 20 μL of agonist solution was added to each well. The final volume was 100 μL/well.
(6) Fluorescence intensity ratio refers to the fluorescence intensity at 340 nm over the fluorescence intensity at 380 nm at a particular time point. The baseline was set as the average of the fluorescent intensity ratios for the first 16 time points before the addition of agonist solution. The maximum response was the highest fluorescent intensity ratio during the 60 time points following addition of agonist solution.
(7) Maximal signal ratios from each well were calculated as output data using the FDSS-3000 analysis program. Data were analyzed using Excel (Microsoft) and XLfit (idbs) software.
Two different agonist solutions with different H2SO4 concentrations were used for the pH assay (FIG. 3A). For one half of a 96-well plate one agonist solution was used, for the other half the other agonist solution. The agonist solutions were obtained by diluting sulfuric acid (H2SO4, 1M) with measuring buffer. The concentrations for the two agonist solutions were determined as described above in Section 2 of Protocol 2.
The sulfuric acid concentrations between the two agonist solutions differed by 0.5 mM. […] After 1:4 dilution of the agonist solutions, the final sulfuric acid concentration was 3.2 mM and 3.3 mM, respectively. The resulting pH value for the pH assay was 5.0 to 5.1.
Test compounds were dissolved in DMSO to yield 1 mM stock solutions. […] The thereby-obtained solutions were further diluted in measuring buffer (1:100) as 10× stock serial dilutions with a DMSO concentration of 1%. 10 μL of a 10× stock was added into each well at step 3.3.(4) of Protocol 2.
Steps (1) and (2) of this Assay were the same as steps 2.2.(1) and 2.2.(2) of Protocol 2, respectively.
(3) The cells were washed twice with 150 μL of measuring buffer (mentioned in 2.2.(3) of Protocol 2, no probenecid). The wells were subsequently refilled with 70 μL of measuring buffer.
(4) Either 10 μl of measuring buffer or 10 μL of 10× stock serial dilution of test compound (described in 3.2. above) were applied to each well. Usually, only one test compound was tested per 96-well plate. The number of replicates per 96-well plate for a particular antagonist at a particular concentration was 7×2 since two different sulfuric acid concentrations were used per 96-well plate (N=7×2) (FIG. 3).
Step (5) was the same as 2.2.(4) above.
(6) Fura-2 fluorescent intensity was monitored as described in 2.2.(5) above. After 16 time points of baseline detection, 20 μL of agonist solution (measuring buffer titrated with H2SO4 to yield pH 5.0-5.1 when mixed 1:4 with the measuring buffer containing test compound) was added to each well (final volume 100 μL/well).
Steps (7) and (8) were as described in 2.2.(6) and 2.2.(7) above, respectively.
(1) The pH values of the buffer in the wells of A1→H1 and A7→H7 (longitudinally; FIG. 3) were measured one by one using a portable pH meter.

human recombinant TRPV1 [2] = target: T1, human recombinant TRPV1; assay: TRPV1 Capsaicin-Based Assay (Protocol 2, TRPV1/CHO cells, Fluo-4, FLIPR); format: cell-based; settings: TRPV1/CHO cells, capsaicin 100 nM final
Procedure: as §1
One day prior to assay, TRPV1/CHO cells were seeded in 96-well clear-bottom black plates (20,000 cells/well) in growth media. On the day of the experiment, the cells were washed with 0.2 mL 1× Hank's Balanced Salt Solution (Life Technologies) containing 1.6 mM CaCl2 and 20 mM HEPES, pH 7.4 (“wash buffer”). Subsequently, the cells were loaded by incubation in 0.1 mL of wash buffer containing Fluo-4 at 3 μM final concentration. After 1 hour, the cells were washed twice with 0.2 mL wash buffer and resuspended in 0.1 mL wash buffer. The plates were then transferred to a Fluorescence Imaging Plate Reader (Molecular Devices). Fluorescence intensity was monitored for 15 seconds to establish a baseline. Subsequently, test compounds diluted in assay buffer (1× Hank's Balanced Salt Solution containing 1 mM CaCl2 and 20 mM HEPES, pH 7.4) containing 1% DMSO were added to the cell plate and fluorescence was monitored for 2 minutes. […] Human TRPV1 was then activated by the addition of 50 μL capsaicin (100 nM final concentration) and plates incubated for an additional 3 min. Data were collected over the entire time course and analyzed using Excel and the curve-fitting formula GraphPad Prism.

[3] = read-out: IC50 value by the Capsaicin-Based Assay
[4] = compounds of the invention, read-out: TRPV1 IC50 Potency (Capsaicin-Based Assay), Compound IC50

T1 sequence (Q8NER1 whole entry): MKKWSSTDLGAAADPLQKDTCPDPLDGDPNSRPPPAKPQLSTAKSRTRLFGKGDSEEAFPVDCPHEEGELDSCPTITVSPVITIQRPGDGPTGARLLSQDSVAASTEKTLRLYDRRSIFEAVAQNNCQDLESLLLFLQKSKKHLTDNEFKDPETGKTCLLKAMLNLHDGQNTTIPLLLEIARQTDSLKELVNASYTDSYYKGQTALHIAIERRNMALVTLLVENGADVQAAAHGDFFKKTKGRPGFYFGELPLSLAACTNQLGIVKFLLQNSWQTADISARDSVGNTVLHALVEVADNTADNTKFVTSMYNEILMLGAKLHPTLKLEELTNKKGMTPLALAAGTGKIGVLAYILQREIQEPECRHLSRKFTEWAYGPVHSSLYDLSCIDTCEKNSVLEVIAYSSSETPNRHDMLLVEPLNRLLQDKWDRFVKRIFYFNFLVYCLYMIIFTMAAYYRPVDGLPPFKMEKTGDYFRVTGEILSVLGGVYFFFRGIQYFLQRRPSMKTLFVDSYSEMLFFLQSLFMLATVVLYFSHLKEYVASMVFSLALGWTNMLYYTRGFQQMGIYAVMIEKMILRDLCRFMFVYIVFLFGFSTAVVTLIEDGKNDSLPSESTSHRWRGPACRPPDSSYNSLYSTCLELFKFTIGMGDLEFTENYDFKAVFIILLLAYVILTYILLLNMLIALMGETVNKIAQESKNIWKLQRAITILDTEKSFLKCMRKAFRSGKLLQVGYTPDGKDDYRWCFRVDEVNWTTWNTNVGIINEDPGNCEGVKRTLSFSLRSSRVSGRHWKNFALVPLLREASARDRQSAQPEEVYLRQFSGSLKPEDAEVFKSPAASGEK

Row | IC50 (human recombinant TRPV1 [1]) [nM] | IC50 (human recombinant TRPV1 [2]; [3]) [nM] | IC50 (human recombinant TRPV1 [2]; [4]) [nM] | IC50 (human recombinant TRPV1 [2]; comparative compounds, read-out: TRPV1 IC50 Potency (Capsaicin-Based Assay), Comparative compound IC50) [nM] | Compound
1 | ≤ 50 | ≤ 50 |  |  | C[C@H]1CN(c2ncc(C[C@H](O)CO)cc2Cl)CCN1C(=O)Nc1nc2ccc(F)cc2s1 [AEB]
2 | ≤ 50 | ≤ 50 |  |  | C[C@H]1CN(c2ncc(C[C@H](O)CO)cc2C(F)(F)F)CCN1C(=O)Nc1nc2ccccc2s1 [AGY]
3 | ≤ 50 | ≤ 50 |  |  | Cc1cc(NC(=O)N2CCC(F)(c3ncc(C[C@@H](O)CO)cc3C)CC2)ccc1OC(F)(F)F [ACF, (R)-4-(5-(2,3-dihydroxypropyl)-3-methylpyridin-2-yl)-4-fluoro-N-(3-methyl-4-(trifluoromethoxy)phenyl)piperidine-1-carboxamide]
4 | ≤ 50 | ≤ 50 |  |  | Cc1cc(NC(=O)N2CCC(F)(c3ncc(C[C@@H](O)CO)cc3Cl)CC2)ccc1C(F)(F)F [ACI, (R)-4-(3-Chloro-5-(2,3-dihydroxypropyl)pyridin-2-yl)-4-fluoro-N-(3-methyl-4-(trifluoromethyl)phenyl)piperidine-1-carboxamide]
5 | ≤ 50 | ≤ 50 |  |  | CC1(C)CN(c2ncc(C[C@H](O)CO)cc2F)CCN1C(=O)Nc1nc2ccc(F)cc2s1 [AFT]
6 |  |  | 46 |  | Cc1cc(NC(=O)N2CCC(F)(c3ncc(C[C@H](O)CO)cc3F)CC2)ccc1OC(F)(F)F [drawing 496]
7 | ≤ 50 | ≤ 50 |  |  | CC1(C)CN(c2ncc(C[C@@H](O)CO)cc2F)CCN1C(=O)Nc1nc2ccc(F)cc2s1 [AFZ]
8 | ≤ 50 | ≤ 50 |  |  | Cc1cc(C[C@@H](O)CO)cnc1N1CCN(C(=O)Nc2nc3ccc(F)cc3s2)CC1 [ADA, (R)-4-(5-(2,3-dihydroxypropyl)-3-methylpyridin-2-yl)-N-(6-fluorobenzo[d]-thiazol-2-yl)piperazine-1-carboxamide]
9 | ≤ 50 | ≤ 50 |  |  | Cc1cc(C[C@@H](O)CO)cnc1N1CCN(C(=O)Nc2nc3ccc(Cl)cc3s2)[C@H](C)C1 [ADJ, (R)-N-(6-chlorobenzo[d]thiazol-2-yl)-4-{5-[(R)-2,3-dihydroxypropyl]-3-methylpyridin-2-yl}-2-methylpiperazine-1-carboxamide]
10 | ≤ 50 | ≤ 50 |  |  | Cc1cc(NC(=O)N2CCC(F)(c3ncc(C[C@H](O)CO)cc3C)CC2)ccc1C(F)(F)F [ACN, (S)-4-(5-(2,3-dihydroxypropyl)-3-methylpyridin-2-yl)-4-fluoro-N-(3-methyl-4-(trifluoromethyl)phenyl)piperidine-1-carboxamide]
11 | ≤ 50 | ≤ 50 |  |  | Cc1cc(NC(=O)N2CCC(F)(c3ncc(C[C@H](O)CO)cc3C)CC2)ccc1OC(F)(F)F [ACM, (S)-4-(5-(2,3-dihydroxypropyl)-3-methylpyridin-2-yl)-4-fluoro-N-(3-methyl-4-(trifluoromethoxy)phenyl)piperidine-1-carboxamide]
12 | ≤ 50 | ≤ 50 |  |  | Cc1cc(NC(=O)N2CCC(F)(c3ncc(C[C@H](O)CO)cc3Cl)CC2)ccc1C(F)(F)F [ACS, (S)-4-(3-Chloro-5-(2,3-dihydroxypropyl)pyridin-2-yl)-4-fluoro-N-(3-methyl-4-(trifluoromethyl)phenyl)piperidine-1-carboxamide]
13 | ≤ 50 | ≤ 50 |  |  | C[C@H]1CN(c2ncc(C[C@H](O)CO)cc2C(F)(F)F)CCN1C(=O)Nc1nc2ccc(F)cc2s1 [AGW]
14 | ≤ 50 | ≤ 50 |  |  | Cc1cc(NC(=O)N2CCC(F)(c3ncc(C[C@@H](O)CO)cc3F)CC2)ccc1C(F)(F)F [ACO, (R)-4-(5-(2,3-dihydroxypropyl)-3-fluoropyridin-2-yl)-4-fluoro-N-(3-methyl-4-(trifluoromethyl)phenyl)piperidine-1-carboxamide]
15 |  |  | 116 |  | O=C(Nc1nc2ccc(F)cc2s1)N1CCC(F)(c2ncc(C[C@H](O)CO)cc2Cl)CC1
16 |  |  | 8 |  | C[C@@H]1CN(c2ncc(C[C@@H](O)CO)cc2F)CCN1C(=O)Nc1nc2ccc(Cl)cc2s1 [drawing 500]
17 | ≤ 50 | ≤ 50 |  |  | C[C@@H]1CN(c2ncc(C[C@@H](O)CO)cc2F)CCN1C(=O)Nc1nc2ccc(F)cc2s1 [ADH, (R)-4-(5-[(R)-2,3-dihydroxypropyl)-3-fluoropyridin-2-yl)-N-(6-fluorobenzo[d]thiazol-2-yl]-2-methylpiperazine-1-carboxamide]
18 | ≤ 50 | ≤ 50 |  |  | C[C@H]1CN(C(=O)Nc2nc3cc(F)c(F)cc3s2)CCN1c1ncc(C[C@@H](O)CO)cc1F [AFS]
19 | ≤ 50 | ≤ 50 |  |  | Cc1cc(NC(=O)N2CCC(F)(c3ncc(C[C@@H](O)CO)cc3Cl)CC2)ccc1OC(F)(F)F [ACJ, (R)-4-(3-Chloro-5-(2,3-dihydroxypropyl)pyridin-2-yl)-4-fluoro-N-(3-methyl-4-(trifluoromethoxy)phenyl)piperidine-1-carboxamide]
20 | ≤ 50 | ≤ 50 |  |  | Cc1ccc2nc(NC(=O)N3CCN(c4ncc(C[C@@H](O)CO)cc4Cl)C[C@@H]3C)sc2c1 [ADZ]
21 | ≤ 50 | ≤ 50 |  |  | C[C@H]1CN(C(=O)Nc2nc3ccc(Cl)cc3s2)CCN1c1ncc(C[C@H](O)CO)cc1F [AGK]
22 | ≤ 50 | ≤ 50 |  |  | Cc1cc(NC(=O)N2CCC(F)(c3ncc(C[C@@H](O)CO)cc3C)CC2)ccc1C(F)(F)F [ACE, (R)-4-(5-(2,3-dihydroxypropyl)-3-methylpyridin-2-yl)-4-fluoro-N-(3-methyl-4-(trifluoromethyl)phenyl)piperidine-1-carboxamide]
23 |  |  | 40 |  | Cc1cc(NC(=O)N2CC=C(c3ncc(C[C@@H](O)CO)cc3Cl)CC2)ccc1C(F)(F)F [drawing 501]
24 | ≤ 50 | ≤ 50 |  |  | C[C@H]1CN(c2ncc(C[C@H](O)CO)cc2F)CCN1C(=O)Nc1nc2ccc(Cl)cc2s1 [AEN]
25 | ≤ 50 | ≤ 50 |  |  | C[C@H]1CN(c2ncc(C[C@@H](O)CO)cc2F)CCN1C(=O)Nc1nc2cc(F)c(F)cc2s1 [AEY]
26 | ≤ 50 | ≤ 50 |  |  | Cc1cc2nc(NC(=O)N3CCN(c4ncc(C[C@@H](O)CO)cc4Cl)CC3)sc2cc1C [AEH]
27 |  | ≤ 50 |  |  | C[C@@H]1CN(c2ncc(C[C@@H](O)CO)cc2Cl)CCN1C(=O)Nc1nc2ccc(F)cc2s1 [ACU, (R)-4-(3-chloro-5-((R)-2,3-dihydroxypropyl)pyridin-2-yl)-N-(6-fluorobenzo[d]thiazol-2-yl)-2-methylpiperazine-1-carboxamide]
28 |  |  |  | 100 | Cc1cc(NC(=O)N2CCC(F)(c3ncccc3F)CC2)ccc1OC(F)(F)F [reference compound]
